Reference: US20220370406A1, “METHOD OF TREATING STIMULANT USE DISORDER USING A COMBINATION OF TOPIRAMATE AND PHENTERMINE” (University of Kentucky Research Foundation, priority 2019, published 2022)

Test system: participants with cocaine use disorder
Test: Medical safety session: subjective effects questionnaires after intranasal cocaine
Format: in vivo, human
Method: Participants completed one, single-blind medical safety session to ensure they could tolerate intranasal cocaine. Intranasal cocaine doses (i.e., 0 [placebo], 10, 20, 40 and 80 mg) were administered in ascending order. Placebo (i.e., 0 mg) was administered at 0900 hours. The subjective-effect questionnaires and cardiovascular measures described below were completed 30 minutes before placebo administration (i.e., 0830 hours), immediately following and at 15-minute intervals for 45 minutes. Subsequent cocaine administrations were separated by 45 minutes.

[1] = Cocaine 10 mg, Topiramate (0 mg/day) group
[2] = Cocaine 10 mg, Topiramate (50 mg/day) group
[3] = Cocaine 10 mg, Topiramate (100 mg/day) group
[4] = Cocaine 20 mg, Topiramate (0 mg/day) group
[5] = Cocaine 20 mg, Topiramate (50 mg/day) group
[6] = Cocaine 20 mg, Topiramate (100 mg/day) group

COC(=O)[C@H]1[C@@H](OC(=O)c2ccccc2)C[C@@H]2CC[C@H]1N2C [Cocaine, cocaine]
Adjective Rating Scales Sedative, mean peak effect [1]: 2.0
Adjective Rating Scales Stimulant, mean peak effect [1]: 6.1
Drug-Effect Questionnaire Active-Alert-Energetic, mean peak effect [1]: 17.0
Drug-Effect Questionnaire Any Effect, mean peak effect [1]: 21.5
Drug-Effect Questionnaire Bad Effects, mean peak effect [1]: 4.4
Drug-Effect Questionnaire Euphoric, mean peak effect [1]: 10.1
Drug-Effect Questionnaire Good Effects, mean peak effect [1]: 21.5
Drug-Effect Questionnaire High, mean peak effect [1]: 17.3
Drug-Effect Questionnaire Irregular Heart Beat, mean peak effect [1]: 7.0
Drug-Effect Questionnaire Like Drug, mean peak effect [1]: 25.2
Drug-Effect Questionnaire Nausea-Queasy-Sick, mean peak effect [1]: 3.3
Drug-Effect Questionnaire Nervous-Anxious, mean peak effect [1]: 5.1
Drug-Effect Questionnaire Performance Impaired, mean peak effect [1]: 4.9
Drug-Effect Questionnaire Performance Improved, mean peak effect [1]: 10.7
Drug-Effect Questionnaire Restless, mean peak effect [1]: 7.9
Drug-Effect Questionnaire Rush, mean peak effect [1]: 15.5
Drug-Effect Questionnaire Shaky-Jittery, mean peak effect [1]: 3.9
Drug-Effect Questionnaire Sluggish-Fatigued-Lazy, mean peak effect [1]: 8.1
Drug-Effect Questionnaire Stimulated, mean peak effect [1]: 13.8
Drug-Effect Questionnaire Talkative-Friendly, mean peak effect [1]: 17.0
Drug-Effect Questionnaire Willing to Pay For, mean peak effect [1]: 20.6
Drug-Effect Questionnaire Willing to Take Again, mean peak effect [1]: 26.3
Adjective Rating Scales Sedative, mean peak effect [2]: 3.9
Adjective Rating Scales Stimulant, mean peak effect [2]: 8.7
Drug-Effect Questionnaire Active-Alert-Energetic, mean peak effect [2]: 11.2
Drug-Effect Questionnaire Any Effect, mean peak effect [2]: 7.0
Drug-Effect Questionnaire Bad Effects, mean peak effect [2]: 1.2
Drug-Effect Questionnaire Euphoric, mean peak effect [2]: 3.4
Drug-Effect Questionnaire Good Effects, mean peak effect [2]: 6.4
Drug-Effect Questionnaire High, mean peak effect [2]: 6.1
Drug-Effect Questionnaire Irregular Heart Beat, mean peak effect [2]: 0.6
Drug-Effect Questionnaire Like Drug, mean peak effect [2]: 9.2
Drug-Effect Questionnaire Nausea-Queasy-Sick, mean peak effect [2]: 1.2
Drug-Effect Questionnaire Nervous-Anxious, mean peak effect [2]: 0.3
Drug-Effect Questionnaire Performance Impaired, mean peak effect [2]: 0.9
Drug-Effect Questionnaire Performance Improved, mean peak effect [2]: 3.3
Drug-Effect Questionnaire Restless, mean peak effect [2]: 1.2
Drug-Effect Questionnaire Rush, mean peak effect [2]: 5.9
Drug-Effect Questionnaire Shaky-Jittery, mean peak effect [2]: 1.4
Drug-Effect Questionnaire Sluggish-Fatigued-Lazy, mean peak effect [2]: 5.4
Drug-Effect Questionnaire Stimulated, mean peak effect [2]: 11.9
Drug-Effect Questionnaire Talkative-Friendly, mean peak effect [2]: 4.7
Drug-Effect Questionnaire Willing to Pay For, mean peak effect [2]: 5.4
Drug-Effect Questionnaire Willing to Take Again, mean peak effect [2]: 12.0
Adjective Rating Scales Sedative, mean peak effect [3]: 3.1
Adjective Rating Scales Stimulant, mean peak effect [3]: 10.6
Drug-Effect Questionnaire Active-Alert-Energetic, mean peak effect [3]: 6.4
Drug-Effect Questionnaire Any Effect, mean peak effect [3]: 10.7
Drug-Effect Questionnaire Bad Effects, mean peak effect [3]: 0.2
Drug-Effect Questionnaire Euphoric, mean peak effect [3]: 5.6
Drug-Effect Questionnaire Good Effects, mean peak effect [3]: 14.5
Drug-Effect Questionnaire High, mean peak effect [3]: 7.4
Drug-Effect Questionnaire Irregular Heart Beat, mean peak effect [3]: 2.8
Drug-Effect Questionnaire Like Drug, mean peak effect [3]: 10.1
Drug-Effect Questionnaire Nausea-Queasy-Sick, mean peak effect [3]: 6.8
Drug-Effect Questionnaire Nervous-Anxious, mean peak effect [3]: 0.2
Drug-Effect Questionnaire Performance Impaired, mean peak effect [3]: 0.2
Drug-Effect Questionnaire Performance Improved, mean peak effect [3]: 2.1
Drug-Effect Questionnaire Restless, mean peak effect [3]: 0.7
Drug-Effect Questionnaire Rush, mean peak effect [3]: 6.9
Drug-Effect Questionnaire Shaky-Jittery, mean peak effect [3]: 0.3
Drug-Effect Questionnaire Sluggish-Fatigued-Lazy, mean peak effect [3]: 0.5
Drug-Effect Questionnaire Stimulated, mean peak effect [3]: 7.7
Drug-Effect Questionnaire Talkative-Friendly, mean peak effect [3]: 7.8
Drug-Effect Questionnaire Willing to Pay For, mean peak effect [3]: 8.6
Drug-Effect Questionnaire Willing to Take Again, mean peak effect [3]: 12.6
Adjective Rating Scales Sedative, mean peak effect [4]: 4.6
Adjective Rating Scales Stimulant, mean peak effect [4]: 8.4
Drug-Effect Questionnaire Active-Alert-Energetic, mean peak effect [4]: 23.5
Drug-Effect Questionnaire Any Effect, mean peak effect [4]: 28.6
Drug-Effect Questionnaire Bad Effects, mean peak effect [4]: 4.5
Drug-Effect Questionnaire Euphoric, mean peak effect [4]: 11.5
Drug-Effect Questionnaire Good Effects, mean peak effect [4]: 26.1
Drug-Effect Questionnaire High, mean peak effect [4]: 20.0
Drug-Effect Questionnaire Irregular Heart Beat, mean peak effect [4]: 8.8
Drug-Effect Questionnaire Like Drug, mean peak effect [4]: 27.8
Drug-Effect Questionnaire Nausea-Queasy-Sick, mean peak effect [4]: 2.9
Drug-Effect Questionnaire Nervous-Anxious, mean peak effect [4]: 8.5
Drug-Effect Questionnaire Performance Impaired, mean peak effect [4]: 10.4
Drug-Effect Questionnaire Performance Improved, mean peak effect [4]: 12.0
Drug-Effect Questionnaire Restless, mean peak effect [4]: 8.9
Drug-Effect Questionnaire Rush, mean peak effect [4]: 19.4
Drug-Effect Questionnaire Shaky-Jittery, mean peak effect [4]: 8.8
Drug-Effect Questionnaire Sluggish-Fatigued-Lazy, mean peak effect [4]: 6.8
Drug-Effect Questionnaire Stimulated, mean peak effect [4]: 18.7
Drug-Effect Questionnaire Talkative-Friendly, mean peak effect [4]: 18.6
Drug-Effect Questionnaire Willing to Pay For, mean peak effect [4]: 24.9
Drug-Effect Questionnaire Willing to Take Again, mean peak effect [4]: 32.9
Adjective Rating Scales Sedative, mean peak effect [5]: 2.8
Adjective Rating Scales Stimulant, mean peak effect [5]: 8.6
Drug-Effect Questionnaire Active-Alert-Energetic, mean peak effect [5]: 12.8
Drug-Effect Questionnaire Any Effect, mean peak effect [5]: 9.9
Drug-Effect Questionnaire Bad Effects, mean peak effect [5]: 0.3
Drug-Effect Questionnaire Euphoric, mean peak effect [5]: 12.4
Drug-Effect Questionnaire Good Effects, mean peak effect [5]: 11.2
Drug-Effect Questionnaire High, mean peak effect [5]: 13.1
Drug-Effect Questionnaire Irregular Heart Beat, mean peak effect [5]: 0.6
Drug-Effect Questionnaire Like Drug, mean peak effect [5]: 14.6
Drug-Effect Questionnaire Nausea-Queasy-Sick, mean peak effect [5]: 2.2
Drug-Effect Questionnaire Nervous-Anxious, mean peak effect [5]: 0.0
Drug-Effect Questionnaire Performance Impaired, mean peak effect [5]: 2.4
Drug-Effect Questionnaire Performance Improved, mean peak effect [5]: 5.4
Drug-Effect Questionnaire Restless, mean peak effect [5]: 0.7
Drug-Effect Questionnaire Rush, mean peak effect [5]: 14.1
Drug-Effect Questionnaire Shaky-Jittery, mean peak effect [5]: 1.1
Drug-Effect Questionnaire Sluggish-Fatigued-Lazy, mean peak effect [5]: 0.8
Drug-Effect Questionnaire Stimulated, mean peak effect [5]: 15.6
Drug-Effect Questionnaire Talkative-Friendly, mean peak effect [5]: 10.2
Drug-Effect Questionnaire Willing to Pay For, mean peak effect [5]: 7.6
Drug-Effect Questionnaire Willing to Take Again, mean peak effect [5]: 10.2
Adjective Rating Scales Sedative, mean peak effect [6]: 3.7
Adjective Rating Scales Stimulant, mean peak effect [6]: 11.1
Drug-Effect Questionnaire Active-Alert-Energetic, mean peak effect [6]: 11.0
Drug-Effect Questionnaire Any Effect, mean peak effect [6]: 11.7
Drug-Effect Questionnaire Bad Effects, mean peak effect [6]: 2.2
Drug-Effect Questionnaire Euphoric, mean peak effect [6]: 5.7
Drug-Effect Questionnaire Good Effects, mean peak effect [6]: 10.2
Drug-Effect Questionnaire High, mean peak effect [6]: 12.8
Drug-Effect Questionnaire Irregular Heart Beat, mean peak effect [6]: 3.2
Drug-Effect Questionnaire Like Drug, mean peak effect [6]: 14.9
Drug-Effect Questionnaire Nausea-Queasy-Sick, mean peak effect [6]: 10.6
Drug-Effect Questionnaire Nervous-Anxious, mean peak effect [6]: 6.6
Drug-Effect Questionnaire Performance Impaired, mean peak effect [6]: 5.5
Drug-Effect Questionnaire Performance Improved, mean peak effect [6]: 4.0
Drug-Effect Questionnaire Restless, mean peak effect [6]: 0.2
Drug-Effect Questionnaire Rush, mean peak effect [6]: 12.4
Drug-Effect Questionnaire Shaky-Jittery, mean peak effect [6]: 3.1
Drug-Effect Questionnaire Sluggish-Fatigued-Lazy, mean peak effect [6]: 1.1
Drug-Effect Questionnaire Stimulated, mean peak effect [6]: 10.5
Drug-Effect Questionnaire Talkative-Friendly, mean peak effect [6]: 11.2
Drug-Effect Questionnaire Willing to Pay For, mean peak effect [6]: 11.7
Drug-Effect Questionnaire Willing to Take Again, mean peak effect [6]: 11.6
